T1: T2-TrpRS (Homo sapiens, UniProt P23381)
T1 sequence (P23381 94-471): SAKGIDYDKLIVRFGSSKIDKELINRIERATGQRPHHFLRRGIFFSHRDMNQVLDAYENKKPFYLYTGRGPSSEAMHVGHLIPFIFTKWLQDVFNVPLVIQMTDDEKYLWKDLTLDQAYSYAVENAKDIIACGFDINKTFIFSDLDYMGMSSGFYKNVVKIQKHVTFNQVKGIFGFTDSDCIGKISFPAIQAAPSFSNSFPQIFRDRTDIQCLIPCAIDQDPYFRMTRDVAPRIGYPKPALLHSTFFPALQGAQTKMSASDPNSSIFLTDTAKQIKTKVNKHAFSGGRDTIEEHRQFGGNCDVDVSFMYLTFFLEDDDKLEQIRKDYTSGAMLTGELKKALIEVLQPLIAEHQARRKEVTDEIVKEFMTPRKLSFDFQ

T2: human VE-cadherin (extracellular portion)-Fc fusion, purified (human, UniProt P33151 48-599)
T2 sequence (looked up): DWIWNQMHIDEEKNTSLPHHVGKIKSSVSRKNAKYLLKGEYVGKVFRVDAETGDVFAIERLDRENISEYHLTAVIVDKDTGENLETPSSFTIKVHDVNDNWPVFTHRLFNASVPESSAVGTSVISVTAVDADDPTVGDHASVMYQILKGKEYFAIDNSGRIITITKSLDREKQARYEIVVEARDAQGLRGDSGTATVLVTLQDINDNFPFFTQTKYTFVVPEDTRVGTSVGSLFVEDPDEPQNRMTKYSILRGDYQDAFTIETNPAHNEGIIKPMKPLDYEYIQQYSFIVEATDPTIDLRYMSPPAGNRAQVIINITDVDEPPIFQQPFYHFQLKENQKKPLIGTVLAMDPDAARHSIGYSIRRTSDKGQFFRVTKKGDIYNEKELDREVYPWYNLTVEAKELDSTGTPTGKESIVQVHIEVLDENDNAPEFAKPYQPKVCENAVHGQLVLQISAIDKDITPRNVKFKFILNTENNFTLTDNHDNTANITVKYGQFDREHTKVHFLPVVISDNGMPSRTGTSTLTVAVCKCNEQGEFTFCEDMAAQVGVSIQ


How the values were obtained:
T2-TrpRS = target: T1, T2-TrpRS; assay: isothermal titration calorimetry; format: binding
[1] = target: T2, human VE-cadherin (extracellular …); assay: co-IP

Kd (T2-TrpRS) | amount bound relative to T2-TrpRS [1] | Molecule
11 µM | – | N[C@@H](Cc1c[nH]c2ccccc12)C(=O)O [Trp]
– | ~5% | full-length human tryptophanyl-tRNA synthetase (FL-TrpRS) (enzyme, UniProt P23381 1-471, looked up) MPNSEPASLLELFNSIATQGELVRSLKAGNASKDEIDSAVKMLVSLKMSYKAAAGEDYKADCPPGNPAPTSNHGPDATEAEEDFVDPWTVQTSSAKGIDYDKLIVRFGSSKIDKELINRIERATGQRPHHFLRRGIFFSHRDMNQVLDAYENKKPFYLYTGRGPSSEAMHVGHLIPFIFTKWLQDVFNVPLVIQMTDDEKYLWKDLTLDQAYSYAVENAKDIIACGFDINKTFIFSDLDYMGMSSGFYKNVVKIQKHVTFNQVKGIFGFTDSDCIGKISFPAIQAAPSFSNSFPQIFRDRTDIQCLIPCAIDQDPYFRMTRDVAPRIGYPKPALLHSTFFPALQGAQTKMSASDPNSSIFLTDTAKQIKTKVNKHAFSGGRDTIEEHRQFGGNCDVDVSFMYLTFFLEDDDKLEQIRKDYTSGAMLTGELKKALIEVLQPLIAEHQARRKEVTDEIVKEFMTPRKLSFDFQ

From publication PMC3042952 (Nature structural & molecular biology, 2009)
